Test results reported in ChEMBL document CHEMBL5131536, “Novel Quinoline Compounds as EZH2 Inhibitors for Treating Cancer” (ACS Med Chem Lett, 2022).

Target: Histone-lysine N-methyltransferase EZH2 (Homo sapiens, UniProt Q15910)
Test: Inhibition of EZH2 in human G-401 cells assessed as reduction in H3K27 methylation incubated for 48 hrs by ELISA
Type: cell-based

Histone-lysine N-methyltransferase EZH2, sequence (Q15910 whole entry): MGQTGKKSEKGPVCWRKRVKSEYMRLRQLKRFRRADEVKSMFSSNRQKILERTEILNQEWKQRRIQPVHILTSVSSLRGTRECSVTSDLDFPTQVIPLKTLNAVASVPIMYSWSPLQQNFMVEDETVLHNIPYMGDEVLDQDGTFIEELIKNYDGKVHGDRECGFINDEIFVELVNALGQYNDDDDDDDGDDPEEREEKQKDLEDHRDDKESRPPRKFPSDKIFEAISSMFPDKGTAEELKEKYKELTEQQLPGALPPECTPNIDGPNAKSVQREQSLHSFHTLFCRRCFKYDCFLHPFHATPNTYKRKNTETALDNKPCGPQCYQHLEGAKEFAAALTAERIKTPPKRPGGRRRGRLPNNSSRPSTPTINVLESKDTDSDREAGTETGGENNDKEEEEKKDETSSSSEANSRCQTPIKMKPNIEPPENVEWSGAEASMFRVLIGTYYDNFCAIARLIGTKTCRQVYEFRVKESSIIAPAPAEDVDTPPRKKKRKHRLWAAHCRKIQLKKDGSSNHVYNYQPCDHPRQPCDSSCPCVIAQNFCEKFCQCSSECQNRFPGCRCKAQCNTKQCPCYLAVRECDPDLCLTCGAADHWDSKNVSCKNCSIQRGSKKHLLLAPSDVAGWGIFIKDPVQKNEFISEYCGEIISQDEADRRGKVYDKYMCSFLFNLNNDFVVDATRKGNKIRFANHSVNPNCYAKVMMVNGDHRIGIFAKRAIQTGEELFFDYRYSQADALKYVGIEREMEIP

Q: `Cc1ccc2ccc(N[C@H]3CC[C@H](CNc4ncc(CC(=O)NC5COC5)cn4)CC3)nc2c1Cl` was tested. Which IC50 did it give?
A: < 10 nM

Q: `Cc1ccc2ccc(N[C@H]3CC[C@H](CNc4ncc(C(CO)C(=O)NC5COC5)cn4)CC3)nc2c1Cl` (stereo partly specified) was tested. Which IC50 did it give?
A: < 10 nM

Q: `Cc1ccc2ccc(N[C@H]3CC[C@H](CNc4ncc(C(O)C(=O)NC5COC5)cn4)CC3)nc2c1Cl` (stereo partly specified) was tested. Which IC50 did it give?
A: < 10 nM

Q: `Cc1ccc2ccc(N[C@H]3CC[C@H](CNc4ncc(C(F)(F)C(=O)NC5COC5)cn4)CC3)nc2c1Cl` was tested. Which IC50 did it give?
A: < 10 nM

Q: How did the IC50 turn out when `Cc1ccc2ccc(N[C@H]3CC[C@H](CNc4ncc(C(C#N)C(=O)NC5COC5)cn4)CC3)nc2c1Cl` (stereo partly specified) was run?
A: < 10 nM

Q: With `Cc1ccc2ccc(N[C@H]3CC[C@H](CNc4ccc(CC(=O)NC5COC5)cn4)CC3)nc2c1Cl` as the molecule, how does the IC50 read?
A: < 10 nM
